Data published in patent publication US8846698B2, “Pyrrolo[2,3-d]pyrimidine tropomysin-related kinase inhibitors” (Pfizer Limited, priority 2011, dated 2014).

Target: TRKA (Homo sapiens (Human), UniProt P04629)
Test: Isolated TRK enzyme assay (HTRF KinEASE-TK), TRKA
Type: biochemical
Conditions: read-out: Trka enzyme (IC50)

TRKA, sequence (P04629 441-796): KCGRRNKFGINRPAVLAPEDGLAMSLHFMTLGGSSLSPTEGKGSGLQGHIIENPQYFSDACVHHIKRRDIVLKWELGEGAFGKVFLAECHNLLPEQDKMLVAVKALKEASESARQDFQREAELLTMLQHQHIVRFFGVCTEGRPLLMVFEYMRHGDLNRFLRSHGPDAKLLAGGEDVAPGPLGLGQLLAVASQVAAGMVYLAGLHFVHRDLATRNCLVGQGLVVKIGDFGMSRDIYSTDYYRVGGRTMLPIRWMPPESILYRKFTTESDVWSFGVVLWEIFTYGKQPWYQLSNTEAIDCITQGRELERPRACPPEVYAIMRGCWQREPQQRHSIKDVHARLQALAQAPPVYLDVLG

| SMILES | IC50 [nM] |
| --- | --- |
| COCC(C)(C)n1cc(C(=O)c2cncc(NC(=O)Cn3cc(C(F)(F)F)nn3)c2)c2cnc(N)nc21 [Example 550, N-{5-[2-Amino-7-(2-methoxy-1,1-dimethyl-ethyl)-7H-pyrrolo[2,3-d]pyrimidine-5-carbonyl]-pyridin-3-yl}-2-(4-trifluoromethyl-[1,2,3]triazol-1-yl)-acetamide] | 16.1 |
| COCC(C)(C)n1cc(C(=O)c2cncc(NC(=O)Cn3cc(C(F)(F)F)cn3)c2)c2cnc(N)nc21 [Example 551, N-{5-[2-Amino-7-(2-methoxy-1,1-dimethyl-ethyl)-7H-pyrrolo[2,3-d]pyrimidine-5-carbonyl]-pyridin-3-yl}-2-(4-trifluoromethyl-pyrazol-1-yl)-acetamide] | 2.78 |
| COCC(C)(C)n1cc(C(=O)c2cncc(NC(=O)Cn3cc(C4CC4)nn3)c2)c2cnc(N)nc21 [Example 552, N-{5-[2-Amino-7-(2-methoxy-1,1-dimethyl-ethyl)-7H-pyrrolo[2,3-d]pyrimidine-5-carbonyl]-pyridin-3-yl}-2-(4-cyclopropyl-[1,2,3]triazol-1-yl)-acetamide] | 7.62 |
| CC(C)(CO)n1cc(C(=O)c2cncc(NC(=O)Cn3cc4ccccc4n3)c2)c2cnc(N)nc21 [Example 553, N-{5-[2-Amino-7-(2-hydroxy-1,1-dimethyl-ethyl)-7H-pyrrolo[2,3-d]pyrimidine-5-carbonyl]-pyridin-3-yl}-2-indazol-2-yl-acetamide] | 4.4 |
| CC(C)(CO)n1cc(C(=O)c2cncc(NC(=O)Cn3cnc4ccccc4c3=O)c2)c2cnc(N)nc21 [Example 554, N-{5-[2-Amino-7-(2-hydroxy-1,1-dimethyl-ethyl)-7H-pyrrolo[2,3-d]pyrimidine-5-carbonyl]-pyridin-3-yl}-2-(4-oxo-4H-quinazolin-3-yl)-acetamide] | 270 |
| CN(c1ccc(CC(=O)Nc2cncc(C(=O)c3cn(C(C)(C)CO)c4nc(N)ncc34)c2)cc1)S(C)(=O)=O [Example 557, N-(5-{[2-amino-7-(2-hydroxy-1,1-dimethylethyl)-7H-pyrrolo[2,3-d]pyrimidin-5-yl]carbonyl}pyridin-3-yl)-2-{4-[methyl(methylsulfonyl)amino]phenyl}-acetamide] | 9.47 |
| CC(C)(CO)n1cc(C(=O)c2cncc(NC(=O)Cn3cc(C(F)(F)F)ccc3=O)c2)c2cnc(N)nc21 [Example 559, N-{5-[2-Amino-7-(2-hydroxy-1,1-dimethyl-ethyl)-7H-pyrrolo[2,3-d]pyrimidine-5-carbonyl]-pyridin-3-yl}-2-(2-oxo-5-trifluoromethyl-2H-pyridin-1-yl)-acetamide] | 374 |
| CC(C)(CO)n1cc(C(=O)c2cncc(NC(=O)Cn3cc(C(F)(F)F)cn3)c2)c2cnc(N)nc21 [Example 563, N-{5-[2-Amino-7-(2-hydroxy-1,1-dimethyl-ethyl)-7H-pyrrolo[2,3-d]pyrimidine-5-carbonyl]-pyridin-3-yl}-2-(4-trifluoromethyl-pyrazol-1-yl)-acetamide] | 3.11 |
| N#Cc1ccc(CC(=O)Nc2cncc(C(=O)c3c[nH]c4ncncc34)c2)cc1 [Example 570, 2-(4-Cyano-phenyl)-N-[5-(7H-pyrrolo[2,3-d]pyrimidine-5-carbonyl)-pyridin-3-yl]-acetamide] | 6970 |
| CC1(n2cc(C(=O)c3cncc(NC(=O)Cc4ccc(C(F)(F)F)cc4)c3)c3cncnc32)COC1 [Example 571, N-{5-[7-(3-Methyl-oxetan-3-yl)-7H-pyrrolo[2,3-d]pyrimidine-5-carbonyl]-pyridin-3-yl}-2-(4-trifluoromethyl-phenyl)-acetamide] | 2.92 |

Now from value to compound:

| IC50 [nM] | SMILES |
| --- | --- |
| 150 | CC(C)(CO)n1cc(C(=O)c2cncc(NC(=O)Cc3ncc(F)cc3F)c2)c2cnc(N)nc21 [Example 555, N-{5-[2-Amino-7-(2-hydroxy-1,1-dimethyl-ethyl)-7H-pyrrolo[2,3-d]pyrimidine-5-carbonyl]-pyridin-3-yl}-2-(3,5-difluoro-pyridin-2-yl)-acetamide] |
| 3.16 | Cc1ccc(CC(=O)Nc2cncc(C(=O)c3cn(C(C)(C)CO)c4nc(N)ncc34)c2)nc1 [Example 556, N-{5-[2-Amino-7-(2-hydroxy-1,1-dimethyl-ethyl)-7H-pyrrolo[2,3-d]pyrimidine-5-carbonyl]-pyridin-3-yl}-2-(5-methyl-pyridin-2-yl)-acetamide] |
| 5.56 | CC(C)(CO)n1cc(C(=O)c2cncc(NC(=O)Cc3nc4ccccc4[nH]3)c2)c2cnc(N)nc21 [Example 558, N-{5-[2-Amino-7-(2-hydroxy-1,1-dimethyl-ethyl)-7H-pyrrolo[2,3-d]pyrimidine-5-carbonyl]-pyridin-3-yl}-2-(1H-benzoimidazol-2-yl)-acetamide] |
| 1610 | CC(C)(CO)n1cc(C(=O)c2cncc(NC(=O)Cc3ncc(Cl)cc3F)c2)c2cnc(N)nc21 [Example 560, N-{5-[2-Amino-7-(2-hydroxy-1,1-dimethyl-ethyl)-7H-pyrrolo[2,3-d]pyrimidine-5-carbonyl]-pyridin-3-yl}-2-(5-chloro-3-fluoro-pyridin-2-yl)-acetamide] |
| 112 | CCOc1ccc(CC(=O)Nc2cncc(C(=O)c3cn(C(C)(C)CO)c4nc(N)ncc34)c2)nc1 [Example 561, N-{5-[2-Amino-7-(2-hydroxy-1,1-dimethyl-ethyl)-7H-pyrrolo[2,3-d]pyrimidine-5-carbonyl]-pyridin-3-yl}-2-(5-ethoxy-pyridin-2-yl)-acetamide] |
| 3.75 | CC(C)(CO)n1cc(C(=O)c2cncc(NC(=O)Cc3ccc(C(F)(F)F)cn3)c2)c2cnc(N)nc21 [Example 562, N-{5-[2-Amino-7-(2-hydroxy-1,1-dimethyl-ethyl)-7H-pyrrolo[2,3-d]pyrimidine-5-carbonyl]-pyridin-3-yl}-2-(5-trifluoromethyl-pyridin-2-yl)-acetamide] |
| 1.57 | CC(C)(CO)n1cc(C(=O)c2cncc(NC(=O)Cc3ccc(NS(C)(=O)=O)cc3)c2)c2cnc(N)nc21 [Example 564, N-{5-[2-Amino-7-(2-hydroxy-1,1-dimethyl-ethyl)-7H-pyrrolo[2,3-d]pyrimidine-5-carbonyl]-pyridin-3-yl}-2-(4-methanesulfonylamino-phenyl)-acetamide] |
| 17.9 | CC(C)(CO)n1cc(C(=O)c2cncc(NC(=O)Cc3ccc(OC(F)F)cc3)c2)c2cnc(N)nc21 [Example 565, N-{5-[2-Amino-7-(2-hydroxy-1,1-dimethyl-ethyl)-7H-pyrrolo[2,3-d]pyrimidine-5-carbonyl]-pyridin-3-yl}-2-(4-difluoromethoxy-phenyl)-acetamide] |
| 20.8 | CC(C)(CO)n1cc(C(=O)c2cncc(NC(=O)Cc3ccc(OC(F)(F)F)cc3)c2)c2cnc(N)nc21 [Example 567, N-{5-[2-Amino-7-(2-hydroxy-1,1-dimethyl-ethyl)-7H-pyrrolo[2,3-d]pyrimidine-5-carbonyl]-pyridin-3-yl}-2-(4-trifluoromethoxy-phenyl)-acetamide] |
| 12.1 | CC(C)(CO)n1cc(C(=O)c2cncc(NC(=O)Cc3ccc(F)c(F)c3)c2)c2cnc(N)nc21 [Example 568, N-{5-[2-Amino-7-(2-hydroxy-1,1-dimethyl-ethyl)-7H-pyrrolo[2,3-d]pyrimidine-5-carbonyl]-pyridin-3-yl}-2-(3,4-difluoro-phenyl)-acetamide] |
| 34.4 | CC(C)(CO)n1cc(C(=O)c2cncc(NC(=O)Cc3ncc(Cl)cn3)c2)c2cnc(N)nc21 [Example 569, N-{5-[2-Amino-7-(2-hydroxy-1,1-dimethyl-ethyl)-7H-pyrrolo[2,3-d]pyrimidine-5-carbonyl]-pyridin-3-yl}-2-(5-chloro-pyrimidin-2-yl)-acetamide] |
